PubChem BioAssay AID1963450 (Molecular Pharmacology Branch, DTP, NCI, 2024)

Tested on: 556581-035-R-J1-PDC complex spheroid growth
Assay: Anticancer human tumor 556581-035-R-J1-PDC patient-derived ovarian carcinoma cell line growth inhibition [Asc]
Conditions: for IC50: curve of first compound; for viability, T/C: stronger effect = lower value
How it was run: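 Spheroid model: tumor line + HUVEC + hMSC. Single agents and combinations; top conc. at/near clinical Cmax (10 microM if undetermined), half-log dilutions. DMSO stocks at 800-fold test concentration.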

[1] = second compound 0.1 µM, first compound 0.0316 µM
[2] = second compound 0.1 µM, first compound 0.1 µM
[3] = second compound 0.1 µM, first compound 0.316 µM
[4] = second compound 0.1 µM, first compound 1 µM
[5] = second compound 0.1 µM, first compound 3.16 µM
[6] = second compound 0.1 µM, first compound 10 µM
[7] = second compound 0.316 µM, first compound 0.0316 µM
[8] = second compound 0.316 µM, first compound 0.1 µM
[9] = second compound 0.316 µM, first compound 0.316 µM
[10] = second compound 0.316 µM, first compound 1 µM
[11] = second compound 0.316 µM, first compound 3.16 µM
[12] = second compound 0.316 µM, first compound 10 µM
[13] = second compound 1 µM, first compound 0.0316 µM
[14] = second compound 1 µM, first compound 0.1 µM
[15] = second compound 1 µM, first compound 0.316 µM
[16] = second compound 1 µM, first compound 1 µM
[17] = second compound 1 µM, first compound 3.16 µM
[18] = second compound 1 µM, first compound 10 µM
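Also: spheroids exposed to agents for 7 days before viability read.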

Molecule `C=C(F)C(=O)N1CCN(c2nc(OCC3CCCN3C)nc3c2CCN(c2cccc4cccc(Cl)c24)C3)CC1CC#N` (stereo not given) + CNC(C)C(=O)NC1CN(S(=O)(=O)c2cccc(S(=O)(=O)N3CCC4CCC(C(=O)NC(c5ccccc5)c5ccccc5)N4C(=O)C(NC(=O)C(C)NC)C3)c2)CCC2CCC(C(=O)NC(c3ccccc3)c3ccccc3)N2C1=O has an IC50 (second compound 0.01 µM) of 2.63 µM, an IC50 (second compound 0.0316 µM) of 1.88 µM and an IC50 (second compound 0.1 µM) of 1.5 µM. For the same molecule, the IC50 (second compound 0.316 µM) was 1.07 µM, the IC50 (second compound 1 µM) was 1.09 µM and the viability, T/C (second compound 0.01 µM, first compound 0.0316 µM) was 85.3%. The viability, T/C (second compound 0.01 µM, first compound 0.1 µM) was 85%, the viability, T/C (second compound 0.01 µM, first compound 0.316 µM) was 83% and the viability, T/C (second compound 0.01 µM, first compound 1 µM) was 86.6%. It also gave a viability, T/C (second compound 0.01 µM, first compound 3.16 µM) of 43.2%, a viability, T/C (second compound 0.01 µM, first compound 10 µM) of 0.21% and a viability, T/C (second compound 0.0316 µM, first compound 0.0316 µM) of 83.9%. It also gave a viability, T/C (second compound 0.0316 µM, first compound 0.1 µM) of 86.8%, a viability, T/C (second compound 0.0316 µM, first compound 0.316 µM) of 86.5% and a viability, T/C (second compound 0.0316 µM, first compound 1 µM) of 72%. The viability, T/C (second compound 0.0316 µM, first compound 3.16 µM) was 31.6%, the viability, T/C (second compound 0.0316 µM, first compound 10 µM) was 0.18% and the viability, T/C [1] was 66.5%. For the same molecule, the viability, T/C [2] was 77.1%, the viability, T/C [3] was 79.5% and the viability, T/C [4] was 58.4%. The viability, T/C [5] was 29.5%, the viability, T/C [6] was 0.17% and the viability, T/C [7] was 78.7%. It also gave a viability, T/C [8] of 75.1%, a viability, T/C [9] of 63.7% and a viability, T/C [10] of 56%. For the same molecule, the viability, T/C [11] was 20%, the viability, T/C [12] was 1.79% and the viability, T/C [13] was 66.5%. It also gave a viability, T/C [14] of 62.7%, a viability, T/C [15] of 62.3% and a viability, T/C [16] of 52.3%. It also gave a viability, T/C [17] of 24.4% and a viability, T/C [18] of 2.63%.
`CCN1C(C(=O)NC23CCC(C(=O)O)(CC2)CC3)C(c2cccc(Cl)c2F)C2(C(=O)Nc3cc(Cl)ccc32)C12CCCCC2` (stereo not given) + CNC(C)C(=O)NC1CN(S(=O)(=O)c2cccc(S(=O)(=O)N3CCC4CCC(C(=O)NC(c5ccccc5)c5ccccc5)N4C(=O)C(NC(=O)C(C)NC)C3)c2)CCC2CCC(C(=O)NC(c3ccccc3)c3ccccc3)N2C1=O was tested, and the IC50 (second compound 0.01 µM) was over 3 µM, the IC50 (second compound 0.0316 µM) was over 3 µM and the IC50 (second compound 0.1 µM) was over 3 µM. The IC50 (second compound 0.316 µM) was over 3 µM, the IC50 (second compound 1 µM) was over 3 µM and the viability, T/C (second compound 0.01 µM, first compound 0.00949 µM) was 82.8%. For the same molecule, the viability, T/C (second compound 0.01 µM, first compound 0.03 µM) was 98.8%, the viability, T/C (second compound 0.01 µM, first compound 0.0949 µM) was 97.1% and the viability, T/C (second compound 0.01 µM, first compound 0.3 µM) was 86.2%. It also gave a viability, T/C (second compound 0.01 µM, first compound 0.949 µM) of 92.2%, a viability, T/C (second compound 0.01 µM, first compound 3 µM) of 86.9% and a viability, T/C (second compound 0.0316 µM, first compound 0.00949 µM) of 83.2%. For the same molecule, the viability, T/C (second compound 0.0316 µM, first compound 0.03 µM) was 85.7%, the viability, T/C (second compound 0.0316 µM, first compound 0.0949 µM) was 82.3% and the viability, T/C (second compound 0.0316 µM, first compound 0.3 µM) was 87.8%. The viability, T/C (second compound 0.0316 µM, first compound 0.949 µM) was 91.2%, the viability, T/C (second compound 0.0316 µM, first compound 3 µM) was 102% and the viability, T/C (second compound 0.1 µM, first compound 0.00949 µM) was 79%. It also gave a viability, T/C (second compound 0.1 µM, first compound 0.03 µM) of 88.9%, a viability, T/C (second compound 0.1 µM, first compound 0.0949 µM) of 84.3% and a viability, T/C (second compound 0.1 µM, first compound 0.3 µM) of 67.7%. It also gave a viability, T/C (second compound 0.1 µM, first compound 0.949 µM) of 90%, a viability, T/C (second compound 0.1 µM, first compound 3 µM) of 90.3% and a viability, T/C (second compound 0.316 µM, first compound 0.00949 µM) of 77.1%. The viability, T/C (second compound 0.316 µM, first compound 0.03 µM) was 78.9%, the viability, T/C (second compound 0.316 µM, first compound 0.0949 µM) was 77.6% and the viability, T/C (second compound 0.316 µM, first compound 0.3 µM) was 84.9%. For the same molecule, the viability, T/C (second compound 0.316 µM, first compound 0.949 µM) was 73.4%, the viability, T/C (second compound 0.316 µM, first compound 3 µM) was 69.7% and the viability, T/C (second compound 1 µM, first compound 0.00949 µM) was 71.5%. The viability, T/C (second compound 1 µM, first compound 0.03 µM) was 72.5%, the viability, T/C (second compound 1 µM, first compound 0.0949 µM) was 65.9% and the viability, T/C (second compound 1 µM, first compound 0.3 µM) was 68.4%. It also gave a viability, T/C (second compound 1 µM, first compound 0.949 µM) of 68% and a viability, T/C (second compound 1 µM, first compound 3 µM) of 72.4%.
In the case of `O=C(c1cc(Cc2n[nH]c(=O)c3ccccc23)ccc1F)N1CCN(C(=O)C2CC2)CC1` + Cc1c(S(C)(=O)=O)c(-c2cc(F)cc(N3CCN(c4ccc(NS(=O)(=O)c5ccc(NC(CCN6CCC(C(=O)OCCCP(=O)(O)O)CC6)CSc6ccccc6)c(S(=O)(=O)C(F)(F)F)c5)cc4)CC3)c2)c(-c2ccc(Cl)cc2)n1C(C)C, the IC50 (second compound 0.1 µM) is reported as over 10 µM, the IC50 (second compound 0.316 µM) is reported as over 10 µM and the IC50 (second compound 1 µM) is reported as over 10 µM. It also gave an IC50 (second compound 3.16 µM) of over 10 µM, an IC50 (second compound 10 µM) of over 10 µM and a viability, T/C [1] of 87.3%. The viability, T/C [2] was 81.3%, the viability, T/C [3] was 92.9% and the viability, T/C [4] was 96%. It also gave a viability, T/C [5] of 82.3%, a viability, T/C [6] of 77.2% and a viability, T/C [7] of 73.6%. The viability, T/C [8] was 90.2%, the viability, T/C [9] was 73.3% and the viability, T/C [10] was 89.8%. It also gave a viability, T/C [11] of 83.4%, a viability, T/C [12] of 66.8% and a viability, T/C [13] of 70.8%. It also gave a viability, T/C [14] of 69%, a viability, T/C [15] of 73.4% and a viability, T/C [16] of 78%. It also gave a viability, T/C [17] of 66.3%, a viability, T/C [18] of 66.4% and a viability, T/C (second compound 3.16 µM, first compound 0.0316 µM) of 63.4%. For the same molecule, the viability, T/C (second compound 3.16 µM, first compound 0.1 µM) was 75.6%, the viability, T/C (second compound 3.16 µM, first compound 0.316 µM) was 67.6% and the viability, T/C (second compound 3.16 µM, first compound 1 µM) was 65.8%. For the same molecule, the viability, T/C (second compound 3.16 µM, first compound 3.16 µM) was 66.9%, the viability, T/C (second compound 3.16 µM, first compound 10 µM) was 57.9% and the viability, T/C (second compound 10 µM, first compound 0.0316 µM) was 68%. For the same molecule, the viability, T/C (second compound 10 µM, first compound 0.1 µM) was 80.7%, the viability, T/C (second compound 10 µM, first compound 0.316 µM) was 60.6% and the viability, T/C (second compound 10 µM, first compound 1 µM) was 54.2%. It also gave a viability, T/C (second compound 10 µM, first compound 3.16 µM) of 57.1% and a viability, T/C (second compound 10 µM, first compound 10 µM) of 77.5%.
